We go through 10 molecules from US20220204539A1, “CD73 INHIBITORS” (BioArdis LLC, priority 2019, published 2022).

Where only a bound is given, the exact number is not on record here.

For the first assay, the target named is T1, Recombinant Human 5′-Nucleotidase (CD73) (Homo sapiens, UniProt P21589).
T1 construct: CHO derived CD73 (Trp27-Lys547), with a C-terminal 6-His tag; 6-His (C); purchased R&D 5795-EN; host or cells: CHO
T1 sequence (P21589 27-547): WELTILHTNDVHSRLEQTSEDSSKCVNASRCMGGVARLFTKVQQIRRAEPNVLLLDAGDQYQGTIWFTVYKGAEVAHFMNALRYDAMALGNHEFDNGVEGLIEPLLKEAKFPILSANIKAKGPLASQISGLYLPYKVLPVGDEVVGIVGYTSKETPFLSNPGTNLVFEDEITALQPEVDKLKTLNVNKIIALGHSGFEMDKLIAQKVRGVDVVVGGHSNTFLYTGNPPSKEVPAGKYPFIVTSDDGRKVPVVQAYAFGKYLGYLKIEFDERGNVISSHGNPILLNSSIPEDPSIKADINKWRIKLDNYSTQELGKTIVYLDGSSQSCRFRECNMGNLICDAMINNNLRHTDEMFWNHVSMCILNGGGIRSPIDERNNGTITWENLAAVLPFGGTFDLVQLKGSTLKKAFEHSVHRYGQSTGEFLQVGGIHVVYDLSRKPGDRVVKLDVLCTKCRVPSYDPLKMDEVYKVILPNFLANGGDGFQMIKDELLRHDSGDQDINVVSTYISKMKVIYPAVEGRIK
The assay is described as follows: CD73 Enzyme Assay. In kind it is biochemical.
Settings: not given
The source says:
Soluble recombinant CD73 catalyzes the conversion of adenosine monophosphate (AMP) to adenosine and inorganic phosphate. The phosphate detection reagent, PiColorLock™ (Innova Bioscience, Cat #303-0125) is based on the change in absorbance of the dye malachite green in the presence of inorganic phosphate (Pi) and this property can be exploited to measure any enzyme that generates Pi. Recombinant Human 5′-Nucleotidase (CD73) (R&D #5795-EN, CHO derived CD73 (Trp27-Lys547), with a C-terminal 6-His tag) was used in the enzymatic assay. This assay was run in a 384-well plate format (Corning® NBS™ 384 well plates, Cat #3640). The basic assay procedure involves two steps: 1) Enzyme reaction: The CD73 enzyme (R&D #5795-EN) is incubated in the presence or absence of compounds. AMP (sigma, cat #01930) is added to start the […] reaction. 2) Detection step: Gold mix is added to the assay system, then stabilizers are added. After incubation the absorbance of the solution is read at OD 635 nm. The recorded OD signal is proportional to the enzyme activity.
Briefly, 25 μl human CD73 (0.5 nM final concentration) in the enzymatic buffer solutions (20 mM Tris, 25 mM NaCl, 1 mM MgCl2, pH 7.5, 0.005% Tween-20) were mixed with various concentrations of the test compound (dissolved in 100% DMSO). These solutions were incubated for 15 min at 25° C., and subsequently 25 μl AMP (30 μM final concentration) was added to start the reaction. The final reaction mixture of enzyme-substrate-compound was incubated for 20 min at 37° C. Meanwhile ‘Gold mix’ was prepared shortly before use by adding 1/100 vol. of accelerator to the PiColorLock™ Gold reagent. 12 μL/well of the ‘Gold mix’ was added to assay plate containing 50 μL enzyme reaction buffer and incubated at 25° C. for 5 min. 5 μL/well stabilizer was added to the assay plate and incubated at 25° C. for 30 min. The absorbance of the well solutions was measured at 635 nm on a Spark 10M instrument (TECAN).
The percent (%) inhibition at each concentration of a compound was calculated relative to the OD value in the Max and Min control wells contained within each assay plate. The Max control wells contained enzyme and substrate as 0% inhibition, and the M control wells only contained substrate without enzyme as 100% inhibition. The concentrations and percent inhibition values for a test compound are plotted and the concentration of the compound required to achieve 50% inhibition (IC50) was determined with a four-parameter logistic dose response equation.
With `COP(=O)(CP(=O)(O)O)OC[C@H]1O[C@@H](c2cnc3c(NC4CCCC4)nc(Cl)nn23)[C@H](O)[C@@H]1O` (stereo partly drawn) [Compound 71, (((((2R,3S,4R,1S)-5-(2-chloro-4-(cyclopentylamino)imidazo[2,1-f][1,2,4]triazin-7-yl)-3,4-dihydroxytetrahydrofuran-2-yl)methoxy)(methoxy)phosphoryl)methy)phosphonic Acid], the IC50 was 10 to 99 nM.

The same assay, now with this note: human CD73 0.5 nM, AMP 30 μM, PiColorLock phosphate detection; read-out: Potency (IC50, CD73 enzyme assay).
Consider `O=P(O)(O)CP(=O)(O)OC[C@H]1O[C@@H](c2cnc3c(NCc4ccccc4)nc(Cl)nn23)[C@H](O)[C@@H]1O` [Compound 6, (((((2R,3S,4R,1S)-5-(4-(benzylamino)-2-chloroimidazo[2,1-f][1,2,4]triazin-7-yl)-3,4-dihydroxytetrahydrofuran-2-yl)methoxy)(hydroxy)phosphoryl)methyl)phosphonic Acid], for which the half-maximal inhibitory concentration (IC50) was less than 10 nM. On to `O=P(O)(O)CP(=O)(O)OC[C@H]1O[C@@H](c2cnc3c(N[C@H]4CCc5ccccc54)nc(Cl)nn23)[C@H](O)[C@@H]1O` [Compound 63, [({[(2R,3S,4R,5S)-5-{2-chloro-4-[(1S)-2,3-dihydro-1H-inden-1-ylamino]imidazo[2,1-f][1,2,4]triazin-7-yl}-3,4-dihydroxyoxolan-2-yl]methoxy}(hydroxy)phosphoryl)methyl] phosphonic acid], for which the half-inhibitory concentration (IC50) is less than 10 nM. Still for that read-out and setting: then `O=C1C[C@H](Nc2nc(Cl)nn3c([C@@H]4O[C@H](COP(=O)(O)CP(=O)(O)O)[C@@H](O)[C@H]4O)cnc23)CN1` [Compound 26, [({[(2R,3S,4R,5S)-5-{2-chloro-4-[(5-oxopyrrolidin-3-yl)amino]imidazo[2,1-f][1,2,4]triazin-7-yl}-3,4-dihydroxyoxolan-2-yl]methoxy}(hydroxy)phosphoryl)methyl]phosphonic acid], with 10 to 99 nM; and `O=P(O)(O)CP(=O)(O)OC[C@H]1O[C@H](c2cnc3c(NCc4ccccc4)ncnn23)[C@@H](F)[C@@H]1O` [Compound 4, [({[(2R,3R,4S,5R)-5-[4-(benzylamino)imidazo[2,1-f][1,2,4]triazin-7-yl]-4-fluoro-3-hydroxyoxolan-2-yl]methoxy}(hydroxy)phosphoryl)methyl]phosphonic Acid], with greater than 1000 nM; and `O=P(O)(O)CP(=O)(O)OC[C@H]1O[C@@H](c2cnc3c(NCC4CCCC(O)C4)nc(Cl)nn23)[C@H](O)[C@@H]1O` (stereo partly drawn) [Compound 78, (((((2R,3S,4R,5S)-5-(2-chloro-4-(((3-hydroxycyclohexyl)methyl)amino)imidazo[2,1-f][1,2,4]triazin-7-yl)-3,4-dihydroxytetrahydrofuran-2-yl)methoxy)(hydroxy)phosphoryl)methyl) phosphonic acid], with less than 10 nM. Take `C=Cc1nc(NC2CCCC2)c2ncc([C@@H]3O[C@H](COP(=O)(O)CP(=O)(O)O)[C@@H](O)[C@H]3O)n2n1` [Compound 80, (((((2R,3S,4R,1S)-5-(4-(cyclopentylamino)-2-vinylimidazo[2,1-f][1,2,4]triazin-7-yl)-3,4-dihydroxytetrahydrofuran-2-yl)methoxy)(hydroxy)phosphoryl)methyl)phosphonic Acid]: the IC50 was 10 to 99 nM. Same read-out and setting: the figure for `CC(C)(C)[C@@H]1CCCN1c1nc(Cl)nn2c([C@@H]3O[C@H](COP(=O)(O)CP(=O)(O)O)[C@@H](O)[C@H]3O)cnc12` [Compound 38, (((((2R,3S,4R,1S)-5-(4-((S)-2-(tert-butyl)pyrrolidin-1-yl)-2-chloroimidazo[2,1-f][1,2,4]triazin-7-yl)-3,4-dihydroxytetrahydrofuran-2-yl)methoxy)(hydroxy)phosphoryl)methyl)phosphonic Acid] is 10 to 99 nM. Same read-out and setting: the figure for `O=P(O)(CP1(=O)OCC[C@@H](c2cccc(Cl)c2)O1)OC[C@H]1O[C@@H](c2cnc3c(NC4CCCC4)nc(Cl)nn23)[C@H](O)[C@@H]1O` (stereo partly drawn) [Compound 58, ((2R,3S,4R,5S)-5-(2-chloro-4-(cyclopentylamino)imidazo[2,1-f][1,2,4]triazin-7-yl)-3,4-dihydroxytetrahydrofuran-2-yl)methyl hydrogen (((4S)-4-(3-chlorophenyl)-2-oxido-1,3,2-dioxaphosphinan-2-yl)methyl)phosphonate] is 100 to 999 nM; for `O=P(O)(O)CP(=O)(O)OC[C@H]1O[C@@H](c2cnc3c(N4CCC[C@@H]4c4ccccc4)nc(Cl)nn23)[C@H](O)[C@@H]1O` [Compound 31, [({[(2R,3S,4R,5S)-5-{2-chloro-4-[(2R)-2-phenylpyrrolidin-1-yl]imidazo[2,1-f][1,2,4]triazin-7-yl}-3,4-dihydroxyoxolan-2-yl]methoxy}(hydroxy)phosphoryl)methyl]phosphonic Acid] it is 10 to 99 nM.

Another assay has as its target T2, Cell surface CD73 of U87 MG human glioblastoma cells (Homo sapiens, UniProt P21589).
T2 construct: Cell surface CD73 catalyzes the conversion of adenosine monophosphate (AMP) to adenosine and inorganic phosphate; endogenous in cells; host or cells: U87 MG human glioblastoma cells
T2 sequence (P21589 27-549): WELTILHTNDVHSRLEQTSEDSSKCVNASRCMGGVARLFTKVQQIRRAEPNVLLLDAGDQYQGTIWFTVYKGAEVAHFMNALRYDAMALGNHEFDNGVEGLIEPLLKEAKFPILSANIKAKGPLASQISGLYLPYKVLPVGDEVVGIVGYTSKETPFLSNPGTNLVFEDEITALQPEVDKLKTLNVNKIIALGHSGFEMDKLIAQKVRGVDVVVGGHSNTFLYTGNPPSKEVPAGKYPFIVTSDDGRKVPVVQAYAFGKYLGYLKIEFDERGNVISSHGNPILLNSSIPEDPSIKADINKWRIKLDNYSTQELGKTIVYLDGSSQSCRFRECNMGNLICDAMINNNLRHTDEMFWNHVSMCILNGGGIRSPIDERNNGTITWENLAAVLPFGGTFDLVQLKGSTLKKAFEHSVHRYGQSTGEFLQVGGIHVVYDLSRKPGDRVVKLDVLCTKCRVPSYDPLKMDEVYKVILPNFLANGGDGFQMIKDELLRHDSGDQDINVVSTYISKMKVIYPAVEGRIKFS
As to the kind of experiment: CD73 Cellular Assay. In kind it is cell-based. The settings on record: 5000 cells per well, 30 μM AMP substrate, read-out: Potency (IC50, CD73 cellular assay). The protocol:
Cell surface CD73 catalyzes the conversion of adenosine monophosphate (AMP) to adenosine and inorganic phosphate. U87 MG human glioblastoma cells express high level of CD73. Cells are treated with compounds in a 96-well assay plate and supernatants are collected into a 384-well detection plate. The concentration of inorganic phosphate (Pi) in the supernatants is determined using the phosphate detection reagent, PiColorLock™ (Innova Bioscience, Cat #303-0125) following the manufacturer's instructions.
Briefly, on the day of the assay, U87 MG cells were harvested and resuspended in assay buffer which consisted of 20 mM HEPES, pH=7.4, 137 mM NaCl, 5.4 mM KCl, 1.3 mM CaCl2, 4.2 mM NaHCO3 and 0.1% glucose. To test the effect of compounds on cellular CD73 enzymatic activity, 500 nL/well of compounds dissolved in DMSO were added to a 96-well TC-treated microplate (Corning #3599). Next, 80 μL/well of U87 MG cells in assay buffer were added to assay plate. After 30 minutes of incubation in an atmosphere of 5% CO2 at 37° C., 20 μL/well of 150 μM AMP (Adenosine 5′-monophosphate monohydrate, Sigma, Cat #01930) in assay buffer was added to assay plate. Final assay conditions consisted of 5000 cells per well in 0.5% DMSO and 30 μM AMP substrate. After 50 minutes of incubation in an atmosphere of 5% CO2 at 37° C., 50 μL/well of supernatant was transferred to the 384-well detection plate (Corning® NBS™ 384 well plates, Cat #3640). Meanwhile “Gold mix” was prepared shortly before use by adding 1/100 volume of accelerator to the PiColorLock™ Gold reagent. 12 μL/well of the “Gold mix” was added to detection plate containing 50 μL/well of supernatant and incubated at 25° C. for 5 minutes. 5 μL/well stabilizer was added to the detection plate and incubated at 25° C. for 30 minutes. The absorbance at 635 nm was measured on a Spark 10M instrument (TECAN). The percent (%) inhibition at each concentration of a compound was calculated relative to the OD value in the Max and Min control wells contained within each assay plate. The Max control wells contained cells and substrate as 0% inhibition, and the Min control wells only contained cells as 100% inhibition. The concentrations and percent inhibition values for a test compound are plotted and the concentration of a the compound required to achieve 50% inhibition (IC50) was determined with a four-parameter logistic dose response equation.
Regarding `O=P(O)(O)CP(=O)(O)OC[C@H]1O[C@@H](c2cnc3c(NCc4ccccc4)nc(Cl)nn23)[C@H](O)[C@@H]1O` [Compound 6, (((((2R,3S,4R,1S)-5-(4-(benzylamino)-2-chloroimidazo[2,1-f][1,2,4]triazin-7-yl)-3,4-dihydroxytetrahydrofuran-2-yl)methoxy)(hydroxy)phosphoryl)methyl)phosphonic Acid], the IC50 is less than 1 nM. Consider `O=P(O)(O)CP(=O)(O)OC[C@H]1O[C@@H](c2cnc3c(N[C@H]4CCc5ccccc54)nc(Cl)nn23)[C@H](O)[C@@H]1O` [Compound 63, [({[(2R,3S,4R,5S)-5-{2-chloro-4-[(1S)-2,3-dihydro-1H-inden-1-ylamino]imidazo[2,1-f][1,2,4]triazin-7-yl}-3,4-dihydroxyoxolan-2-yl]methoxy}(hydroxy)phosphoryl)methyl] phosphonic acid], for which the IC50 was less than 1 nM.

A word on the IC50: it is the concentration needed to halve the response being measured.
